Results published in US20130266636A1, “METHODS FOR BLOCKING CELL PROLIFERATION AND TREATING DISEASES AND CONDITIONS RESPONSIVE TO CELL GROWTH INHIBITION” (THE REGENTS OF THE UNIVERSITY OF CALIFORNIA, priority 2010, published 2013).

Legend:
[1] = bFGF- or VEGF-stimulated endothelial cells; cited from earlier work
[2] = system: XPA-1-RFP pancreatic tumor xenografts; test: Orthotopic XPA-1-RFP pancreatic tumor xenograft in Nestin-GFP mice; format: in vivo
Experimental: FIG. 16 and FIG. 17 illustrate data showing that KG5 inhibits pancreatic tumor growth and reduces tumor vascular density, as described in Murphy (2010) Proc. Natl. Acad. Sci. USA, Mar. 2, 2010; vol. 107(9): 4299-4304. FIGS. 16A and 16B, and FIGS. 17A and 17B: Real-time fluorescent imaging of XPA-1-RFP pancreatic tumor xenografts in the pancreas of Nestin-GFP mice (n=5/group) treated with either vehicle (FIG. 16A, 17A) or KG5 (FIG. 16B, 17B) (50 mg/kg, i.p., bid). Drug treatments were started 3 days after surgical orthotopic implantation (SOT) of XPA-1-RFP tumors, and tumor progression was monitored every 3 days by whole-animal imaging (Scale bar, 10 mm). FIG. 17(C) graphically illustrates a plot of tumor surface area over time for the vehicle- and KG5-treated groups, Tumor surface area was calculated by adding the total pixels of both the ventral and lateral images of the tumor. *P=0.034. FIG. 17(D) graphically illustrates average body weight of the mice measured each day of whole-animal imaging described in A and B. FIG. 16(C) graphically illustrates total weights of resected primary tumors on day 15 post-SOT. *P=0.022.
Animals were systemically treated with either vehicle or KG5 (50 mg/kg, bid) beginning 3 days after surgical orthotopic implantation (SOI) of a tumor fragment. Tumor growth was monitored noninvasively by whole-body imaging. […] Animals treated with KG5 produced an average tumor weight of 26.7 mg compared to 74.1 mg for vehicle-treated animals (FIG. 16C). At this time, GFP-labeled blood vessels were imaged and tumor-associated blood vessel density was quantified by measuring the ratio of total blood vessel length to tumor volume. […] The mean vessel length/tumor volume was 2.5 mm/mm^3 compared to 0.2 mm/mm^3 for vehicle and KG5, respectively.
FIG. 18 further illustrates data from the studies of FIG. 16 and FIG. 17: FIG. 18(A) and FIG. 18(B) illustrate representative fluorescent images of endothelial GFP expression (GFP expression driven by the Nestin promoter) within the XPA-1-RFP tumors after resection. Images were taken 15 days post-SOI (Scale bar, 200 μm); FIG. 18(C) illustrates a plot of tumor vessel density from images acquired as in E, Blood vessels imaged as in E were converted to length (mm) and normalized to tumor volume (mm^3). *P=0.01.

[3] = biological target: RAF dimerization (BRAF and CRAF) (Homo sapiens, UniProt P04049); test: RAF dimerization, immunoblot of BRAF and CRAF immunoprecipitates from XPA-1 cells; format: cell-based; design: immunoblot analysis of BRAF and CRAF immunoprecipitates from XPA-1 cells; endogenous in cells; host or cells: XPA-1
Experimental: FIGS. 6 and 7 illustrate immunoblot analysis of CRAF immunoprecipitated from XPA-1 cells treated with KG5 and KG38.
FIG. 14 illustrates immunoblot analysis of BRAF and CRAF immunoprecipitates from XPA-1 cells treated with PD0325901, Sorafenib, L-779450, PLX4720, KG5 or KG1.
Immunoprecipitation and Immunoblot Analysis Cells were lysed in either NP40 lysis buffer (150 mM NaCl, 50 mM Tris Base pH 7.4, 1% NP40) or RIPA buffer (50 mM Tris pH 7.4, 100 mM NaCl, 0.1% SDS) supplemented with complete protease inhibitor mixture (Roche), 50 mM NaF and 1 mM Na3VO4 and centrifuged at 13,000×g for 10 min at 4° C. Protein concentration was determined by BCA assay. […] of protein were immunoprecipitated with […] of anti-Flag (Sigma), anti-CRAF (BD Pharmingen), anti-Plk1 (Abcam), anti-γ-Tubulin (sigma) or anti-cenpF (Santa Cruz) antibodies overnight at 4° C. followed by capture with 25 μl of protein A/G (Pierce). Beads were washed five times, eluted in boiling Laemmli buffer, resolved on 10% SDS-PAGE and immunoblotting was performed with anti-Plk1 antibody (Abcam), anti-CRAF antibody (BD Pharmingen), anti-Aurora A (Abcam), anti-phospho-S338 CRAF (Cell Signaling), anti-phospho-T210 Plk1 or anti-phospho-T288 Aurora A (Cell signaling) diluted 1:1000. For immunoblot analysis, […] of protein was boiled in […]

RAF dimerization (BRAF and CRAF), sequence (P04049 whole entry): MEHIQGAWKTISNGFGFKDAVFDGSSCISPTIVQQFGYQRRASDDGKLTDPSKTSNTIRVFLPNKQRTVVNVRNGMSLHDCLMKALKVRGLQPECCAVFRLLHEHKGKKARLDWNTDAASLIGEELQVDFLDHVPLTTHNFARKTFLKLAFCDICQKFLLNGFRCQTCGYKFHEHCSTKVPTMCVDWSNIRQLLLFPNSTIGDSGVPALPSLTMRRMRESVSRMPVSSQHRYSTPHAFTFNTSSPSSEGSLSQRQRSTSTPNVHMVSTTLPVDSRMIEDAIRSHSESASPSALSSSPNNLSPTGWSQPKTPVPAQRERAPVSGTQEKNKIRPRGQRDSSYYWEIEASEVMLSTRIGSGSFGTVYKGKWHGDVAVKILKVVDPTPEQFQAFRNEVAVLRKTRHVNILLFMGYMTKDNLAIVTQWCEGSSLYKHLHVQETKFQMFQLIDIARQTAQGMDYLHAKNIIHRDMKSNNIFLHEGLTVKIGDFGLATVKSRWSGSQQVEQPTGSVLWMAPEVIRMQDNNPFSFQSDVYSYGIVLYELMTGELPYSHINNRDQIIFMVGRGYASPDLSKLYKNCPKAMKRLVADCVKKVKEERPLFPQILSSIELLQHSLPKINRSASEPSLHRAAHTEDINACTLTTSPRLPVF

Q: For `CSc1nc(N)cc(Oc2ccc(-c3nnc(Nc4cccc(C(F)(F)F)c4)[nH]3)cc2)n1` [KG5], which p-Aid [1] is on record?
A: did not suppress

Q: What about the body weight ([2]; 50 mg/kg bid) of the same compound?
A: no weight loss

Q: And the signs of lethargy ([2]; 50 mg/kg bid)?
A: did not demonstrate any signs of lethargy

Q: What about the “tumor growth by whole-body imaging” value ([2]; 50 mg/kg bid, 12 days post-SOI, compared to vehicle) of the same compound?
A: completely suppressed

Q: What about the average tumor weight ([2]; 50 mg/kg i.p. bid from 3 days after SOI, resected primary tumors day 15 post-SOI, vehicle 74.1 mg) of the same compound?
A: 26.7 mg

Q: And the “mean vessel length/tumor volume” value ([2]; 50 mg/kg i.p. bid, 15 days post-SOI, vehicle 2.5 mm/mm^3)?
A: 0.2 mm/mm^3

Q: What about the RAF dimerization [3] of the same compound?
A: prevents RAF dimerization
